Measurements as given in publication PMC11225515, “6-Bromo quinazoline derivatives as cytotoxic agents: design, synthesis, molecular docking and MD simulation” (BMC Chemistry, 2024).
Where two headings read alike, the source gives them in different places.

Experiments:
[1] = tested on: MCF-7 (breast carcinoma) cell line; test: MTT cytotoxic assay, MCF-7; assay type: cell-based; conditions: for IC50: MTT, 72 h, 3 repetitions, read-out: IC50 ± SD MCF-7
Experimental: The antiproliferative activity of all the synthesized compounds (8a-8 h) was done by MTT (standard 3-(4,5-dimethylthiazol-yl)-2,5-diphenyl-tetrazolium bromide) assay according to our previous protocols. MCF-7 (breast carcinoma) and SW480 (Colorectal carcinoma) cell lines were choose and purchased from the National Cell Bank of Iran (NCBI, Pasteur Institute, Tehran, Iran). RPMI 1640 culture media with 10% fetal bovine serum (FBS) and 1% penicillin-streptomycin (Gibco, USA) were applied as culture. Trypsin/EDTA 0.5% solution (Gibco/USA) was used to harvest cells and then, the cells were seeded at a density of 1 × 10^4 cells per well in 96-well microplates. […] Three untreated wells were applied as the negative control. After 72 h, the media was changed by 100 µL fresh MTT solution and incubated for 4 h at 37 °C in the incubator to achieve formazan purple crystals. Finally, the media was removed and 150 µL of DMSO was added and incubated at 37 °C in the dark for 10 min to dissolve the crystals. A Microplate ELISA reader was applied to read the absorbance of individual wells at 490 nm. Analysis of the data was obtained by Excel 2016 and Curve Expert 1.4. The data was expressed as the mean ± SD for each analysis. GraphPad Prism software was used to perform one-way ANOVA statistical analyses, followed by Tukey’s multiple comparison test.

[2] = tested on: SW480 (Colorectal carcinoma) cell line; test: MTT cytotoxic assay, SW480; assay type: cell-based; conditions: Homo sapiens, 72 h, 3 repetitions, read-out: IC50 ± SD SW480
Experimental: The antiproliferative activity of all the synthesized compounds (8a-8 h) was done by MTT (standard 3-(4,5-dimethylthiazol-yl)-2,5-diphenyl-tetrazolium bromide) assay according to our previous protocols. MCF-7 (breast carcinoma) and SW480 (Colorectal carcinoma) cell lines were choose and purchased from the National Cell Bank of Iran (NCBI, Pasteur Institute, Tehran, Iran). RPMI 1640 culture media with 10% fetal bovine serum (FBS) and 1% penicillin-streptomycin (Gibco, USA) were applied as culture. Trypsin/EDTA 0.5% solution (Gibco/USA) was used to harvest cells and then, the cells were seeded at a density of 1 × 10^4 cells per well in 96-well microplates. Five different concentrations of the derivatives and Cisplatin as the positive control (1 to 200 µM) were used for treatment in triplicate times. Three untreated wells were applied as the negative control. After 72 h, the media was changed by 100 µL fresh MTT solution and incubated for 4 h at 37 °C in the incubator to achieve formazan purple crystals. Finally, the media was removed and 150 µL of DMSO was added and incubated at 37 °C in the dark for 10 min to dissolve the crystals. A Microplate ELISA reader was applied to read the absorbance of individual wells at 490 nm. Analysis of the data was obtained by Excel 2016 and Curve Expert 1.4. The data was expressed as the mean ± SD for each analysis. GraphPad Prism software was used to perform one-way ANOVA statistical analyses, followed by Tukey’s multiple comparison test.

[3] = tested on: MRC-5 normal cell line; test: MTT cytotoxic assay, normal cell line MRC-5; assay type: cell-based; conditions: read-out: IC50 ± SD MRC-5
[4] = Homo sapiens, MRC5, 3 repetitions

Row | Compound | IC50 ([1]; Homo sapiens, MCF7) [µM] | IC50 [2] [µM] | IC50 [3, 4] [µM] | melting point [°C] | times more potent than Erlotinib in MCF-7 cell line ([1]; cytotoxic activity compared with Erlotinib) | IC50 [1] [µM] | IC50 ([3]; 3 repetitions) [µM]
1 | O=c1c2cc(Br)ccc2nc(SCc2ccc(Cl)cc2)n1-c1ccccc1 [8f, 6-bromo-2-((4-chlorobenzyl)thio)-3-phenylquinazolin-4(3 H )-one] | 52.5 ± 2.92 | 72.2 ± 1.41 | > 100 | 145 to 147 |  |  | 
2 | COc1cccc2c1C(=O)c1c(O)c3c(c(O)c1C2=O)C[C@@](O)(C(=O)CO)C[C@@H]3O[C@H]1C[C@H](N)[C@H](O)[C@H](C)O1 [Doxorubicin, reference compound] | 2.5 ± 0.64 | 3.67 ± 0.24 | 0.52 ± 0.07 |  |  |  | 
3 | O=c1c2cc(Br)ccc2nc(SCc2ccc(Br)cc2)n1-c1ccccc1 [8g, 6-bromo-2-((4-bromobenzyl)thio)-3-phenylquinazolin-4(3 H )-one] | 62.4 ± 3.32 | 68.4 ± 2.62 | > 100 | 175 to 177 |  |  | 
4 | CCCCCSc1nc2ccc(Br)cc2c(=O)n1-c1ccccc1 [8b, 6-bromo-2-(pentylthio)-3-phenylquinazolin-4(3 H )-one] | 18.2 ± 2.01 | 56.5 ± 2.83 | 76.4 ± 2.62 | 99 to 101 |  |  | 
5 | C#Cc1cccc(Nc2ncnc3cc(OCCOC)c(OCCOC)cc23)c1 [Erlotinib, reference compound] |  | 11.2 ± 0.38 | 22.9 ± 3.1 |  |  |  | 
6 | CCCCSc1nc2ccc(Br)cc2c(=O)n1-c1ccccc1 [8a, 6-bromo-2-(butylthio)-3-phenylquinazolin-4(3 H )-one] | 15.8 ± 1.48 | 17.9 ± 0.92 | 84.2 ± 1.72 | 128 to 130 | about 2 times |  | 
7 | Cc1ccc(CSc2nc3ccc(Br)cc3c(=O)n2-c2ccccc2)cc1 [8e, 6-bromo-2-((4-methylbenzyl)thio)-3-phenylquinazolin-4(3 H )-one] | 35.1 ± 3.02 | 63.1 ± 1.63 | > 100 | 164 to 166 |  |  | 
8 | Cc1cccc(CSc2nc3ccc(Br)cc3c(=O)n2-c2ccccc2)c1 [8d, 6-bromo-2-((3-methylbenzyl)thio)-3-phenylquinazolin-4(3 H )-one] | 59.1 ± 3.73 | 72.5 ± 2.9 | > 100 | 101 to 103 |  |  | 
9 | O=c1c2cc(Br)ccc2nc(SCc2ccc([N+](=O)[O-])cc2)n1-c1ccccc1 [8h, 6-bromo-2-((4-nitrobenzyl)thio)-3-phenylquinazolin-4(3 H )-one] | 73.4 ± 3.09 | 65.4 ± 2.8 | > 100 | 231 to 233 |  |  | 
10 | O=c1c2cc(Br)ccc2nc(SCc2ccccc2)n1-c1ccccc1 [8c, 2-(benzylthio)-6-bromo-3-phenylquinazolin-4(3 H )-one] | 142 ± 3.95 | 170.1 ± 1.34 | > 100 | 140 to 142 |  |  | 
11 | N.N.[Cl][Pt][Cl] [Cisplatin, reference compound] |  |  |  |  |  | 9.9 ± 0.14 | 45.2 ± 2.5
